{"source": "patent US20070107074A1", "about": "“Porcine Nuclear Transfer” (Garelag Pty Ltd., priority 1998, published 2007)", "key": {"[1]": {"tested_on": "porcine blastomere nuclei", "test": "Metaphase arrest induced in porcine blastomere nuclei following treatment with nocodazole", "type": "cell-based", "from_the_text": "Preferably, karyoplasts may be synchronized at the G1 state using a DNA synthesis inhibitor and/or use of a microtubule inhibitor which, on following removal of the inhibitor(s), results in synchronization of the karyoplast at the G1 state, or by means other than DNA inhibition, excluding serum starvation, for example cdk kinase inhibitors such as Butyrolactone I (Motlik et al (1998) Theriogeneology 49: 461-469). Examples of DNA synthesis inhibitors include: aphidicolin, hydroxyurea, cytosine arabinoside, 5-fluorouracil, n-ethylmalemide and etoposide. Any microtubule inhibitor may be used in this invention including nocodazole, colchecine or colcemid. Alternatively, a microtubule stabilizer such as, for example, taxol may be used. Karyoplasts may, for example, be synchronized at G1 by the use of a microtubule inhibitor such as nocodazole (to give a population of nuclei at the metaphase) followed by treatment with a DNA synthesis inhibitor such as aphidicolin in which the nuclei progress to an arrest at the G1 state. […] Karyoplasts may be synchronized in the Go state by nutrient deprivation, such as incubation in a low serum containing medium, as is known in the art, or by chemical treatment. Donor karyoplasts (such as cells) may be incubated in a standard culture medium with a DNA synthesis inhibitor and/or microtubule inhibitor for a time sufficient to synchronize the cells at the G1 state. This can be readily observed by microscopic observations. DNA synthesis inhibitors and/or microtubule inhibitors may be used, for example, in an amount of from about 0.01 μg/ml to about 50 μg/ml, such as about 1-5 μg/ml culture medium. Microtubule inhibitors fix the cells at the M phase. After removal of microtubule inhibitor from the cell media, which can conveniently be done by washing the cells, cells pass to the G1 phase after about 30 minutes to 6 hours in a uniform manner such that a plurality of cells in the G1 phase can be conveniently prepared. A DNA synthesis inhibitor synchronises cells at the G1 phase. Removal of a DNA synthesis inhibitor from cell media allows the cell cycle to proceed. Similarly donor karyoplasts may be synchronized in the G0 state as described above."}, "porcine morulae": {"tested_on": "porcine morulae", "test": "In vitro development of porcine morulae following NZ treatment", "type": "cell-based", "conditions": "15 h", "experimental": "In vitro culture of oocytes, embryos and nuclear transfer embryos was conducted in 25 μl droplets of Whitten's medium (Whitten W K, 1971, in G Raspe, ed Advances in the Biosciences, Pergamon Press: Oxford, pp 129-141) supplemented with 15 mg/ml bovine serum albumin (BSA) under paraffin oil in a plastic petrie dish under an atmosphere of 5% CO2, 5% O2 and 90% N2 in humidified air at […]."}}}
{"smiles": "COC(=O)Nc1nc2ccc(C(=O)c3cccs3)cc2[nH]1", "note": "[NZ, nocodazole]", "values": [{"measurement": "Blastomeres at M", "setting": "[1]; 4 h exposure, NZ 1 μg/ml", "value": "(24%)"}, {"measurement": "Blastomeres at M", "setting": "[1]; 4 h exposure, NZ 1 μg/ml, number at M/total", "value": "14/58"}, {"measurement": "Blastomeres at M", "setting": "[1]; 7 h exposure, NZ 1 μg/ml", "value": "(41%)"}, {"measurement": "Blastomeres at M", "setting": "[1]; 7 h exposure, NZ 1 μg/ml, number at M/total", "value": "54/133"}, {"measurement": "Blastomeres at M", "setting": "[1]; 15 h exposure, NZ 0.5 μg/ml", "value": "(76%)"}, {"measurement": "Blastomeres at M", "setting": "[1]; 15 h exposure, NZ 0.5 μg/ml, number at M/total", "value": "101/133"}, {"measurement": "Blastomeres at M", "setting": "[1]; 15 h exposure, NZ 1 μg/ml", "value": "(96%)"}, {"measurement": "Blastomeres at M", "setting": "[1]; 15 h exposure, NZ 1 μg/ml, number at M/total", "value": "257/267"}, {"measurement": "Development to blastocyst", "setting": "porcine morulae; NZ 0.5 μg/ml, 3 repeats", "value": 70, "unit": "%"}, {"measurement": "Development to blastocyst", "setting": "porcine morulae; NZ 0.5 μg/ml, 3 repeats, number of blastocysts/total", "value": "14/20"}, {"measurement": "Development to blastocyst", "setting": "porcine morulae; NZ 1 μg/ml, 4 repeats", "value": 57, "unit": "%"}, {"measurement": "Development to blastocyst", "setting": "porcine morulae; NZ 1 μg/ml, 4 repeats, number of blastocysts/total", "value": "17/30"}]}
